Data taken from patent publication US20150105252A1, “SUBSTITUTED PYRAZOLES AS HERBICIDES” (E I DU PONT DE NEMOURS AND COMPANY, priority 2013, published 2015).

How the values were obtained:
foxtail, giant [1] = test: Test A postemergence; type: in vivo, Setaria faberii
Procedure, shortened: (§1)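 Scoring was visual, on a scale where 100 means complete control and 0 means no effect, comparing treated with untreated plants around 10 days post-application. Compounds in surfactant-containing non-phytotoxic solvent were sprayed onto soil preemergence or onto one- to two-leaf seedlings (2–10 cm) postemergence.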

galium = test: Test C preemergence; type: in vivo, Galium aparine
Excerpt: (§2) Seeds of plant species selected from blackgrass (Alopecurus myosuroides), ryegrass, Italian (Italian ryegrass, Lolium multiflorum), wheat (winter wheat, Triticum aestivum), galium (catchweed bedstraw, Galium aparine), corn (Zea mays), crabgrass, large (large crabgrass, Digitaria sanguinalis), foxtail, giant (giant foxtail, Setaria faberii), johnsongrass (Sorghum halepense), lambsquarters (Chenopodium album), morningglory (Ipomoea coccinea), nutsedge, yellow (yellow nutsedge, Cyperus esculentus), pigweed (redroot pigweed, Amaranthus retroflexus), ragweed (common ragweed, Ambrosia elation), soybean (Glycine max), barnyardgrass (Echinochloa crus-galli), oilseed rape (Brassica napus), waterhemp (common waterhemp, Amaranthus rudis), oat, wild (wild oat, Avena fatua), kochia (Kochia scoparia), Surinam grass (Brachiaria decumbens), foxtail, green (green foxtail, Setaria viridis), goosegrass (Eleusine indica), bromegrass, downy (downy bromegrass, Bromus tectorum), nightshade (eastern black nightshade, Solanum ptycanthum), cocklebur (common cocklebur, Xanthium strumarium), cupgrass, woolly (woolly cupgrass, Eriochloa villosa), bermudagrass (Cynodon dactylon), sunflower, (common oilseed sunflower, Helianthus annuus), Russian thistle (Salsola kali), and velvetleaf (Abutilon theophrasti) were planted into a blend of loam soil and sand and treated preemergence with test chemicals formulated in a non-phytotoxic solvent mixture which included a surfactant.
(§3) At the same time, plants selected from these crop and weed species and also chickweed (common chickweed, Stellaria media), canarygrass (littleseed canarygrass, Phalaris minor), and deadnettle (henbit deadnettle, Lamium amplexicaule), were planted in pots containing Redi-Earth® planting medium (Scotts Company, 14111 Scottslawn Road, Marysville, Ohio 43041) comprising spaghnum peat moss, vermiculite, wetting agent and starter nutrients and treated with postemergence applications of test chemicals formulated in the same manner. Plants ranged in height from 2 to 18 cm (1- to 4-leaf stage) for postemergence treatments. Treated plants and controls were maintained in a greenhouse for 13 to 15 days, after which time all species were compared to controls and visually evaluated. Plant response ratings, summarized in Table C, are based on a scale of 0 to 100 where 0 is no effect and 100 is complete control. A dash (-) response means no test result.

corn [2] = test: Test A postemergence; type: in vivo, Zea mays
Procedure, shortened: as §1

velvetleaf = test: Test A postemergence; type: in vivo, Abutilon theophrasti
Procedure, shortened: as §1

foxtail, giant [3] = test: Test C preemergence; type: in vivo, Setaria faberii
Excerpt: as §2, §3

wheat = test: Test A postemergence; type: in vivo, Triticum aestivum
Procedure, shortened: as §1

soybean = test: Test C preemergence; type: in vivo, Glycine max
Excerpt: as §2, §3

corn [4] = test: Test C preemergence; type: in vivo, Zea mays
Excerpt: as §2, §3

waterhemp = test: Test C preemergence; type: in vivo, Amaranthus rudis
Excerpt: as §2, §3

[5] = Postemergence, 500 g ai/ha, 0 to 100 scale (0 no effect, 100 complete control)
[6] = postemergence, 125 g ai/ha, about 10 days, visual rating on 0 to 100 scale (0 no effect, 100 complete control)
[7] = preemergence, 31 g ai/ha, visual rating, scale 0 to 100 (0 no effect, 100 complete control), 13 to 15 days
[8] = preemergence, 62 g ai/ha, scale 0 to 100 (0 no effect, 100 complete control), 13 to 15 days
[9] = preemergence, 125 g ai/ha, 13 to 15 days, scale 0 to 100, 0 = no effect, 100 = complete control
[10] = preemergence, 250 g ai/ha, scale 0 to 100, 0 is no effect, 100 is complete control
[11] = Preemergence, 16 g ai/ha, scale 0 to 100
[12] = Postemergence, 125 g ai/ha, 0 to 100 scale, 0 no effect, 100 complete control

| Structure (SMILES) | Foxtail, Giant plant response rating (foxtail, giant [1]; [5]) | Foxtail, Giant plant response rating (foxtail, giant [1]; [6]) | Galium plant response rating (galium; [7]) | Galium plant response rating (galium; [8]) | Plant response rating, Galium (galium; [9]) | Corn plant response rating (corn [2]; [5]) | Corn plant response rating (corn [2]; [6]) | Velvetleaf plant response rating (velvetleaf; [5]) | Foxtail, Giant plant response rating (foxtail, giant [3]; [7]) | Foxtail, Giant plant response rating (foxtail, giant [3]; [8]) | Plant response rating, Foxtail, Giant (foxtail, giant [3]; [9]) | Wheat plant response rating (wheat; [5]) | Soybean plant response rating (soybean; [7]) | Soybean plant response rating (soybean; [8]) | Plant response rating, Soybean (soybean; [9]) | Corn plant response rating (corn [4]; [7]) | Corn plant response rating (corn [4]; [8]) | Plant response rating, Corn (corn [4]; [9]) | Waterhemp plant response rating (waterhemp; [7]) | Waterhemp plant response rating (waterhemp; [8]) | further results |
| --- | --- | --- | --- | --- | --- | --- | --- | --- | --- | --- | --- | --- | --- | --- | --- | --- | --- | --- | --- | --- | --- |
| O=C(NC1CC1)c1cc(CCF)n(Cc2ccnc(C(F)(F)F)c2)n1 [Compound 176] | 90 | 80 | 85 | 85 | 98 | 80 | 40 | 90 | 35 | 90 | 100 | 60 | 30 | 75 | 98 | 5 | 5 | 90 | 100 | 100 | Galium plant response rating (galium; [10]): 100; Velvetleaf plant response rating (velvetleaf; [6]): 40; Foxtail, Giant plant response rating (foxtail, giant [3]; [10]): 100; Wheat plant response rating (wheat; [6]): 10; Soybean plant response rating (soybean; [10]): 98; Corn plant response rating (corn [4]; [10]): 90; Plant response rating, Waterhemp (waterhemp; [9]): 100; Waterhemp plant response rating (waterhemp; [10]): 100 |
| CCNC(=O)c1cc(CCF)n(Cc2ccnc(C(F)(F)F)c2)n1 [Compound 178] | 90 | 70 | 90 | 90 | 95 | 90 | 10 | 60 | 65 | 90 | 100 | 30 | 5 | 40 | 75 | 5 | 5 | 25 | 90 | 100 | Plant response rating, Galium (galium; [11]): 70; Velvetleaf plant response rating (velvetleaf; [6]): 40; Plant response rating, Foxtail, Giant (foxtail, giant [3]; [11]): 5; Wheat plant response rating (wheat; [6]): 0; Plant response rating, Soybean (soybean; [11]): 5; Plant response rating, Corn (corn [4]; [11]): 5; Plant response rating, Waterhemp (waterhemp; [11]): 65; Plant response rating, Waterhemp (waterhemp; [9]): 100 |
| CCCc1cc(C(=O)NOC(C)C)nn1Cc1cc(C(F)(F)F)nn1C [Compound 203] | 90 | 80 | 100 | 100 | 100 | 100 | 50 | 90 | 60 | 98 | 100 | 80 | 5 | 5 | 35 | 5 | 50 | 75 | 85 | 95 | Galium plant response rating (galium; [10]): 100; Velvetleaf plant response rating (velvetleaf; [12]): 30; Foxtail, Giant plant response rating (foxtail, giant [3]; [10]): 100; Wheat plant response rating (wheat; [12]): 70; Soybean plant response rating (soybean; [10]): 55; Corn plant response rating (corn [4]; [10]): 98; Plant response rating, Waterhemp (waterhemp; [9]): 100; Waterhemp plant response rating (waterhemp; [10]): 100 |
